17 compounds from ChEMBL document CHEMBL1145637, “Dual binding site inhibitors of B-RAF kinase” (Bioorg Med Chem Lett, 2008) can be followed below.

Values after ≈ are worked out from the molar mass of the structure shown. Active and inactive are the calls of the source. The calls are words filed in the database; no cut-off is given here.

Series [1] has as its target Serine/threonine-protein kinase B-raf (Homo sapiens, UniProt P15056).
Description: Inhibition of B-RAF kinase
A short description of series [2]: Metabolic stability in human liver microsome after 30 mins. It counts as ADME. The settings on record: liver microsomes, read-out: Stability.
A short description of series [3]: Inhibition of ERK phosphorylation.
Series [4] concerns the target RAF proto-oncogene serine/threonine-protein kinase (Homo sapiens, UniProt P04049). In words: Inhibition of C-RAF kinase.
The nature of series [5]: Aqueous solubility in NaH2PO4 at pH 7.4 after 24 hrs by HPLC. The format is physicochemical. The settings on record: for solubility at 24 h: NaH2PO4 buffer, pH 7.4; for Activity: buffer, pH 7.4, 24 h.
For series [6], the target named is Serine/threonine-protein kinase B-raf (Homo sapiens, UniProt P15056, V600E).
Serine/threonine-protein kinase B-raf (Homo sapiens, UniProt P15056, V600E), sequence (P15056 2-766 V600E limits assumed): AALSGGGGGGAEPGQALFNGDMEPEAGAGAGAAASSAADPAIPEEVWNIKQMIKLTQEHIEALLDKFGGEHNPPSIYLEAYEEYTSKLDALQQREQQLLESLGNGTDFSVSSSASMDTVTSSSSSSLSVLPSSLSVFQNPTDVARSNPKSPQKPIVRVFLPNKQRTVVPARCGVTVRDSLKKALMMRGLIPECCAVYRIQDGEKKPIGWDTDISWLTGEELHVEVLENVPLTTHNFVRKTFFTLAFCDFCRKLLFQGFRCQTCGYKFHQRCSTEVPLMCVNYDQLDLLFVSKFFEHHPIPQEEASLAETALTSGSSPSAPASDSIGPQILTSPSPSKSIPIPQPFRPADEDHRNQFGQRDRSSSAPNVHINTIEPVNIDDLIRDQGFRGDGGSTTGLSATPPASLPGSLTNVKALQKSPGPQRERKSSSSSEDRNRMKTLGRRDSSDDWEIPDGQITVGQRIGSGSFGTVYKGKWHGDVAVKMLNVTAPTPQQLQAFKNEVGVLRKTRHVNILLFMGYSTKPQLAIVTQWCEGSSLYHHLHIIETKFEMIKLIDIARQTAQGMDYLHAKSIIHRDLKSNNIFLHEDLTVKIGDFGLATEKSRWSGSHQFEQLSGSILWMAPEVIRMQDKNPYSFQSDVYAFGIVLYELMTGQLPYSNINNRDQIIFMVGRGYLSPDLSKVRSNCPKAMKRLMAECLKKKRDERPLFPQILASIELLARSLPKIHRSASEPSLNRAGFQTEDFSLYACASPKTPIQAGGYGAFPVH
Description: Inhibition of B-RAF V600E mutant
A short description of series [7]: (§1) Metabolic stability in rat liver microsome after 30 mins. The conditions noted are these: liver microsomes, read-out: Stability. It counts as ADME, microsomes.
Another series relates to Liver microsomes. The description is as §1. It counts as ADME. The conditions noted are these: microsomes, 0.5 h.

RAF proto-oncogene serine/threonine-protein kinase, sequence (P04049 whole entry): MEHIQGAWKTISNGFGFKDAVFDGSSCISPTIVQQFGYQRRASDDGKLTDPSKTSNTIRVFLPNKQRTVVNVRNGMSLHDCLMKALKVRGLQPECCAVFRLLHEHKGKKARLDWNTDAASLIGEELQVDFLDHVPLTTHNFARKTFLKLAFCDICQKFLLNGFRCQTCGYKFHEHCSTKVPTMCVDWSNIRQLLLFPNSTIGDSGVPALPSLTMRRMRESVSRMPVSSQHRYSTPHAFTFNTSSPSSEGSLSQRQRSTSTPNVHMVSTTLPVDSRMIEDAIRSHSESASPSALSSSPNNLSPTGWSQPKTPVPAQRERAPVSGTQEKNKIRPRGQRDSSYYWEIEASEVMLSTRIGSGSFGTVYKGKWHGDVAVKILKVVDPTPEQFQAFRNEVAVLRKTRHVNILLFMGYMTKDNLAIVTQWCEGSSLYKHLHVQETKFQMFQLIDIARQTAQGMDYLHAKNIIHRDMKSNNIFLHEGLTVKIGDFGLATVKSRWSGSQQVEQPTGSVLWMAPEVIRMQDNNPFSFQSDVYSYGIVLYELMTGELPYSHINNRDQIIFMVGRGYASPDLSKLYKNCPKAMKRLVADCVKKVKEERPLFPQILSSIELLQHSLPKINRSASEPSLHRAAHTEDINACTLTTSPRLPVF
Serine/threonine-protein kinase B-raf (Homo sapiens, UniProt P15056), sequence (P15056 whole entry): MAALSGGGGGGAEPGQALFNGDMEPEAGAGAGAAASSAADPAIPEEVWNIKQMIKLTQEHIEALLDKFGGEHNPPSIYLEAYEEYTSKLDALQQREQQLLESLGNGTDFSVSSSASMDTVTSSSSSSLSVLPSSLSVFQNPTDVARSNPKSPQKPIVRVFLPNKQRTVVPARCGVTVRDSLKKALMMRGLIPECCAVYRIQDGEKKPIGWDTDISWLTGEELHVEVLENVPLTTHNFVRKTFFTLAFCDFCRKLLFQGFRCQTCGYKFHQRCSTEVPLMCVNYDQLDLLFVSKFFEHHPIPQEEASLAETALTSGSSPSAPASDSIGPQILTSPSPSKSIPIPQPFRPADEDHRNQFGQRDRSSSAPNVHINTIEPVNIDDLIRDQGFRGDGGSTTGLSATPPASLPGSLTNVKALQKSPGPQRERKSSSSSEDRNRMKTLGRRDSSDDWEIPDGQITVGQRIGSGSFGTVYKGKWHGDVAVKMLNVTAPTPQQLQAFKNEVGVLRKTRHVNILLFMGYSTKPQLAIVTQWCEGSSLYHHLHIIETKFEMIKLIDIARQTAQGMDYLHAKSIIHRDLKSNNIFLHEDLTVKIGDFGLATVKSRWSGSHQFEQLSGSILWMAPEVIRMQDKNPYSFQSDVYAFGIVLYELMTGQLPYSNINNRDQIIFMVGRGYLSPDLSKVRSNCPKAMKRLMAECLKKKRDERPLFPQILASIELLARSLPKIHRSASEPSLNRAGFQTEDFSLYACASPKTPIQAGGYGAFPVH

`NC(=O)c1cccc(Nc2nccc(-c3[nH]c(C4CC4)nc3-c3cccc(NC(=O)Cc4ccc(Cl)cc4)c3)n2)c1`: the IC50 in series [1] was 0.004 µM; in series [3] it was 2.4 µM; in series [4] it was 0.0005 µM; in series [6], 0.003 µM. Moreover, the remaining at 0.5 h in series [2] was 53%; in series [7] it was 58%. In addition, the solubility at 24 h in series [5] was 0.5 µM (≈ 0.282 µg/mL).

For the compound `NC(=O)c1cccc(Nc2nccc(-c3[nH]c(C(F)(F)F)nc3-c3cccc(NC(=O)Cc4ccc(Cl)cc4)c3)n2)c1`, the IC50 in series [1] was found to be 0.108 µM; in series [3], 30 µM; in series [4], 0.017 µM; in series [6], 0.085 µM. Further, the remaining at 0.5 h turned out to be 71% in series [2] and 47% in series [7]. Further, the solubility at 24 h in series [5] came to 0.35 µM (≈ 0.207 µg/mL).

Regarding `NC(=O)c1cccc(Nc2nccc(-c3[nH]c(C4CC4)nc3-c3cccc(NC(=O)Nc4ccc(Cl)c(C(F)(F)F)c4)c3)n2)c1`, the IC50 in series [1] worked out at 0.035 µM; in series [3], 2.1 µM; in series [4], 0.031 µM; in series [6], 0.061 µM. This compound also displayed a solubility at 24 h in series [5] of 0.4 µM (≈ 0.253 µg/mL).

In turn, `CC(C)(C)NC(=O)NCCNc1nccc(-c2[nH]c(C3CC3)nc2-c2ccccc2Cl)n1` displayed an IC50 in series [1] of 0.083 µM.

As to `CNc1nccc(-c2[nH]c(C3CC3)nc2-c2cccc(NS(=O)(=O)Cc3ccc(Cl)c(Cl)c3)c2)n1`, the IC50 in series [1] is 0.469 µM; in series [4], 0.026 µM; in series [6] it was 0.138 µM. For the same compound, the results for the remaining at 0.5 h in series [2] and in series [7] were 60% and 87%, respectively. The result in series [3] was inactive. For the same compound, in series [5], the Activity result is given as “Not Active”.

`CNc1nccc(-c2[nH]c(C(F)(F)F)nc2-c2cccc(NC(=O)Cc3ccc(Cl)cc3)c2)n1`: the IC50 in series [1] was 0.03 µM; in series [3] it was 12.6 µM; in series [4], 0.002 µM; in series [6] it was 0.018 µM. For the same compound, the remaining at 0.5 h in series [2] came out at 74%; in series [7] it was 81%. The same compound registered a solubility at 24 h in series [5] of 0.48 µM (≈ 0.234 µg/mL).

With `NC(=O)c1cccc(Nc2nccc(-c3nc(C4CC4)[nH]c3-c3cccc(NS(=O)(=O)Cc4ccc(Cl)c(Cl)c4)c3)n2)c1`, the IC50 in series [1] was 0.887 µM; in series [4], 0.049 µM; in series [6] it was 0.274 µM. The figures for the remaining at 0.5 h in series [2] and in series [7] were 76% and 44%, respectively. For the same compound, in series [5], the Activity entry is given as “Not Active”.

Take `O=C1NCCN1CCNc1nccc(-c2nc(C3CC3)[nH]c2-c2cccc(NS(=O)(=O)Cc3ccc(Cl)c(Cl)c3)c2)n1`: the figures for the IC50 in series [1], in series [4] and in series [6] were 0.343 µM, 0.041 µM and 0.141 µM, respectively. Besides, the remaining at 0.5 h was 85% in series [2] and 52% in series [7]. In addition, the Activity result in series [5] was “Not Active”.

In the case of `NC(=O)c1cccc(Nc2nccc(-c3[nH]c(C4CC4)nc3-c3cccc(NS(=O)(=O)Cc4ccc(Cl)c(Cl)c4)c3)n2)c1`, the outcome in series [3] was inactive.

In the case of `O=C(Nc1cccc(-c2nc(C3CC3)[nH]c2-c2ccnc(NCCN3CCNC3=O)n2)c1)Nc1ccc(Cl)c(C(F)(F)F)c1`, the IC50 in series [1] turned out to be 0.066 µM; in series [3], 2.3 µM; in series [4] it was 0.014 µM; in series [6], 0.022 µM. In addition, the values for the remaining at 0.5 h in series [2] and in series [7] were 50% and 44%, respectively. Also, the concentration in solution in series [5] (solubility at 24 h) was 6.2 µM (≈ 3.88 µg/mL).

In the case of `CNc1nccc(-c2[nH]c(C3CC3)nc2-c2cccc(NC(=O)Nc3ccc(Cl)c(C(F)(F)F)c3)c2)n1`, the IC50 in series [1] is 0.021 µM; in series [3] it was 1.4 µM; in series [4] it was 0.005 µM; in series [6] it was 0.016 µM. In addition, the remaining at 0.5 h in series [2] came to 80%; in series [7], 57%. The compound also gave a solubility at 24 h in series [5] of 0.3 µM (≈ 0.158 µg/mL).

Consider `CNc1nccc(-c2[nH]c(C3CC3)nc2-c2cccc(NC(=O)Cc3ccc(Cl)cc3)c2)n1`, for which the IC50 in series [1] was determined as 0.009 µM; in series [3] it was 5.1 µM; in series [4] it was 0.001 µM; in series [6], 0.003 µM. For the same compound, the solubility at 24 h in series [5] was 0.4 µM (≈ 0.184 µg/mL).

Regarding `O=C1NCCN1CCNc1nccc(-c2[nH]c(C3CC3)nc2-c2cccc(NS(=O)(=O)Cc3ccc(Cl)c(Cl)c3)c2)n1`, the outcome in series [3] was inactive.

For the compound `O=C(Cc1ccc(Cl)cc1)Nc1cccc(-c2nc(C3CC3)[nH]c2-c2ccnc(NCCN3CCNC3=O)n2)c1`, the IC50 in series [1] came to 0.007 µM; in series [3] it was 3 µM; in series [4] it was 0.001 µM; in series [6], 0.002 µM. For the same compound, the remaining at 0.5 h in series [2] came out at 38%; in series [7] it was 60%. The solubility at 24 h in series [5] was found to be 35 µM (≈ 19.5 µg/mL).

Take `O=C(Cc1ccc(Cl)cc1)Nc1cccc(-c2nc(C(F)(F)F)[nH]c2-c2ccnc(NCCN3CCNC3=O)n2)c1`: the half-maximal inhibitory concentration (IC50) in series [1] amounted to 0.054 µM; in series [3] it was 30 µM; in series [4] it was 0.02 µM; in series [6] it was 0.04 µM. Also, the figures for the remaining at 0.5 h in series [2] and in series [7] were 73% and 34%, respectively. In series [5], this compound registered a solubility at 24 h of 7.5 µM (≈ 4.39 µg/mL).

In turn, `O=C1NCCN1CCNc1nccc(-c2nc(C3CC3)[nH]c2-c2cc(Cl)ccc2Cl)n1` gave an IC50 in series [1] of 0.01 µM.

Regarding `CNC(=O)c1cc(Oc2ccc(NC(=O)Nc3ccc(Cl)c(C(F)(F)F)c3)cc2)ccn1` [SORAFENIB], in series [2], the remaining at 0.5 h was 80%. This compound also registered an IC50 in series [3] of 8.3 µM. In series [5], the concentration in solution (solubility at 24 h) was 6.3 µM (≈ 2.93 µg/mL). In addition, the Activity result with Liver microsomes is “Not Active”.
